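Where inhibition never reached the appropriate level, the endpoint shown equals the highest concentration tested. Otherwise, values were interpolated linearly from a five-concentration, 48-hour dose response in 96-well plates. Here, GI50 denotes the concentration required for 50% inhibition of growth. TGI marks complete inhibition of growth.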
Legend:
Test in all cases: NCI-60 cell line screen, 48 h
SK-MEL-28 melanoma = test system: SK-MEL-28 melanoma
HS 578T breast = test system: HS 578T breast
MDA-MB-231 breast = test system: MDA-MB-231 breast
BT-549 breast = test system: BT-549 breast
TK-10 renal = test system: TK-10 renal
SK-MEL-2 melanoma = test system: SK-MEL-2 melanoma
HCC-2998 colon = test system: HCC-2998 colon
SR leukemia = test system: SR leukemia
ACHN renal = test system: ACHN renal
COLO 205 colon = test system: COLO 205 colon
SK-MEL-5 melanoma = test system: SK-MEL-5 melanoma
A498 renal = test system: A498 renal
M14 melanoma = test system: M14 melanoma
PC-3 prostate = test system: PC-3 prostate
LOX IMVI melanoma = test system: LOX IMVI melanoma
KM12 colon = test system: KM12 colon
SN12C renal = test system: SN12C renal
UACC-257 melanoma = test system: UACC-257 melanoma
SNB-19 CNS = test system: SNB-19 CNS
RXF 393 renal = test system: RXF 393 renal
NCI-H522 lung = test system: NCI-H522 lung
HL-60(TB) leukemia = test system: HL-60(TB) leukemia
OVCAR-3 ovarian = test system: OVCAR-3 ovarian
UACC-62 melanoma = test system: UACC-62 melanoma
HCT-15 colon = test system: HCT-15 colon
CAKI-1 renal = test system: CAKI-1 renal
K-562 leukemia = test system: K-562 leukemia
786-0 renal = test system: 786-0 renal
SF-539 CNS = test system: SF-539 CNS
OVCAR-5 ovarian = test system: OVCAR-5 ovarian
MDA-MB-435 = test system: MDA-MB-435
IGROV1 ovarian = test system: IGROV1 ovarian
SNB-75 CNS = test system: SNB-75 CNS
A549 NSCLC = test system: A549 NSCLC
DU-145 prostate = test system: DU-145 prostate
CCRF-CEM leukemia = test system: CCRF-CEM leukemia
T-47D breast = test system: T-47D breast
U251 CNS = test system: U251 CNS
HOP-62 NSCLC = test system: HOP-62 NSCLC
SF-295 CNS = test system: SF-295 CNS
HCT-116 colon = test system: HCT-116 colon
NCI-H226 lung = test system: NCI-H226 lung
HOP-92 NSCLC = test system: HOP-92 NSCLC
UO-31 renal = test system: UO-31 renal
NCI-H460 lung = test system: NCI-H460 lung
NCI/ADR-RES ovarian = test system: NCI/ADR-RES ovarian
OVCAR-4 ovarian = test system: OVCAR-4 ovarian
SK-OV-3 ovarian = test system: SK-OV-3 ovarian
OVCAR-8 ovarian = test system: OVCAR-8 ovarian
MOLT-4 leukemia = test system: MOLT-4 leukemia
HT29 colon = test system: HT29 colon
SF-268 CNS = test system: SF-268 CNS
MCF7 breast = test system: MCF7 breast
RPMI-8226 leukemia = test system: RPMI-8226 leukemia
MALME-3M melanoma = test system: MALME-3M melanoma
EKVX NSCLC = test system: EKVX NSCLC
SW-620 colon = test system: SW-620 colon
NCI-H23 lung = test system: NCI-H23 lung

COC(=O)c1ccc2[nH]c(O)c(C(=Nc3ccc(N(C)C(=O)CN4CCN(C)CC4)cc3)c3cccc(OC)c3)c2c1
GI50 (SK-MEL-28 melanoma): 1710 nM
TGI (SK-MEL-28 melanoma): 3770 nM
GI50 (HS 578T breast): 213 nM
TGI (HS 578T breast): 4130 nM
GI50 (MDA-MB-231 breast): 1310 nM
TGI (MDA-MB-231 breast): 3270 nM
GI50 (BT-549 breast): 1390 nM
TGI (BT-549 breast): 3470 nM
GI50 (TK-10 renal): 1610 nM
TGI (TK-10 renal): 3780 nM
GI50 (SK-MEL-2 melanoma): 1890 nM
TGI (SK-MEL-2 melanoma): 4510 nM
GI50 (HCC-2998 colon): 1650 nM
TGI (HCC-2998 colon): 4980 nM
GI50 (SR leukemia): 231 nM
TGI (SR leukemia): 4520 nM
GI50 (ACHN renal): 2140 nM
TGI (ACHN renal): 7990 nM
GI50 (COLO 205 colon): 395 nM
TGI (COLO 205 colon): 1800 nM
GI50 (SK-MEL-5 melanoma): 1430 nM
TGI (SK-MEL-5 melanoma): 2780 nM
GI50 (A498 renal): 1260 nM
TGI (A498 renal): 2610 nM
GI50 (M14 melanoma): 921 nM
TGI (M14 melanoma): 2410 nM
GI50 (PC-3 prostate): 631 nM
TGI (PC-3 prostate): 5870 nM
GI50 (LOX IMVI melanoma): 654 nM
TGI (LOX IMVI melanoma): 2300 nM
GI50 (KM12 colon): 41.9 nM
TGI (KM12 colon): 4490 nM
GI50 (SN12C renal): 346 nM
TGI (SN12C renal): 10800 nM
GI50 (UACC-257 melanoma): 2010 nM
TGI (UACC-257 melanoma): 4640 nM
GI50 (SNB-19 CNS): 1640 nM
TGI (SNB-19 CNS): 8400 nM
GI50 (RXF 393 renal): 549 nM
TGI (RXF 393 renal): 1870 nM
GI50 (NCI-H522 lung): 1030 nM
TGI (NCI-H522 lung): 3890 nM
GI50 (HL-60(TB) leukemia): 583 nM
TGI (HL-60(TB) leukemia): 2510 nM
GI50 (OVCAR-3 ovarian): 960 nM
TGI (OVCAR-3 ovarian): 2570 nM
GI50 (UACC-62 melanoma): 2140 nM
TGI (UACC-62 melanoma): 4520 nM
GI50 (HCT-15 colon): 1900 nM
TGI (HCT-15 colon): 7040 nM
GI50 (CAKI-1 renal): 373 nM
TGI (CAKI-1 renal): 3380 nM
GI50 (K-562 leukemia): 107 nM
TGI (K-562 leukemia): 4370 nM
GI50 (786-0 renal): 825 nM
TGI (786-0 renal): 2380 nM
GI50 (SF-539 CNS): 463 nM
TGI (SF-539 CNS): 1690 nM
GI50 (OVCAR-5 ovarian): 2290 nM
TGI (OVCAR-5 ovarian): 5460 nM
GI50 (MDA-MB-435): 1480 nM
TGI (MDA-MB-435): 3860 nM
GI50 (IGROV1 ovarian): 191 nM
TGI (IGROV1 ovarian): 2190 nM
GI50 (SNB-75 CNS): 112 nM
TGI (SNB-75 CNS): 1780 nM
GI50 (A549 NSCLC): 1390 nM
TGI (A549 NSCLC): 6420 nM
GI50 (DU-145 prostate): 1890 nM
TGI (DU-145 prostate): 9320 nM
GI50 (CCRF-CEM leukemia): 447 nM
TGI (CCRF-CEM leukemia): 6830 nM
GI50 (T-47D breast): 1280 nM
TGI (T-47D breast): 9340 nM
GI50 (U251 CNS): 1150 nM
TGI (U251 CNS): 3000 nM
GI50 (HOP-62 NSCLC): 1210 nM
TGI (HOP-62 NSCLC): 4780 nM
GI50 (SF-295 CNS): 1120 nM
TGI (SF-295 CNS): 2630 nM
GI50 (HCT-116 colon): 210 nM
TGI (HCT-116 colon): 4660 nM
GI50 (NCI-H226 lung): 1080 nM
TGI (NCI-H226 lung): 5930 nM
GI50 (HOP-92 NSCLC): 2980 nM
TGI (HOP-92 NSCLC): 10900 nM
GI50 (UO-31 renal): 1540 nM
TGI (UO-31 renal): 4050 nM
GI50 (NCI-H460 lung): 1410 nM
TGI (NCI-H460 lung): 3440 nM
GI50 (NCI/ADR-RES ovarian): 12400 nM
TGI (NCI/ADR-RES ovarian): 34000 nM
GI50 (OVCAR-4 ovarian): 960 nM
TGI (OVCAR-4 ovarian): 2840 nM
GI50 (SK-OV-3 ovarian): 198 nM
TGI (SK-OV-3 ovarian): 1880 nM
GI50 (OVCAR-8 ovarian): 1220 nM
TGI (OVCAR-8 ovarian): 9910 nM
GI50 (MOLT-4 leukemia): 392 nM
TGI (MOLT-4 leukemia): 3260 nM
GI50 (HT29 colon): 890 nM
TGI (HT29 colon): 13100 nM
GI50 (SF-268 CNS): 1480 nM
TGI (SF-268 CNS): 4080 nM
GI50 (MCF7 breast): 353 nM
TGI (MCF7 breast): 1930 nM
GI50 (RPMI-8226 leukemia): 1020 nM
TGI (RPMI-8226 leukemia): 3550 nM
GI50 (MALME-3M melanoma): 1490 nM
TGI (MALME-3M melanoma): 2960 nM
GI50 (EKVX NSCLC): 2040 nM
TGI (EKVX NSCLC): 6770 nM
GI50 (SW-620 colon): 429 nM
TGI (SW-620 colon): 4950 nM
GI50 (NCI-H23 lung): 1050 nM
TGI (NCI-H23 lung): 3480 nM
